# Results published in paper PMC10589313 (Nature Communications, 2023).
# Several values for one entry are separate records, joined by “and”; a condition that tells them apart may be missing. Equal values may be shown once.
# Key:
# [1] = target: T1, human H4R W348Y mutant (Homo sapiens, UniProt Q9H3N8, W348Y); test: TGFα shedding assay, H4R W348Y mutant; assay type: cell-based
# T1 construct: a mutant H4R (human, full-length, and untagged); expressed in transfected cells; host or cells: HEK293A
# T1 sequence (Q9H3N8 whole entry W348Y): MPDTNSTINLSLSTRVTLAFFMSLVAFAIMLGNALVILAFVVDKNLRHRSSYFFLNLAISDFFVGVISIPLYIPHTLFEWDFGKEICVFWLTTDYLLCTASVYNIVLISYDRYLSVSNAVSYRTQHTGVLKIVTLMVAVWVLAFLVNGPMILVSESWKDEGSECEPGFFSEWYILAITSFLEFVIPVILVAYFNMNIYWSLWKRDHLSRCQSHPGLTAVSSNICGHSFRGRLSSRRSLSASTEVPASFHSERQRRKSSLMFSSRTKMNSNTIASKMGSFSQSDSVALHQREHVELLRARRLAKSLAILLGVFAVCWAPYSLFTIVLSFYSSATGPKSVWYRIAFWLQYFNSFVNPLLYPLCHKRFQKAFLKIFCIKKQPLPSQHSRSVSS
# Experimental: (§1) The mutants were prepared using the primers listed in Supplementary Table 2. […] The chimeric Gαq/i1 subunit comprises the Gαq backbone and Gαi1-derived six-amino acid C-terminus and couples with Gi-coupled H4R but induces a Gq-dependent TGFα shedding response. After culturing for 1 day and incubating at 37 °C in a 5% CO2 incubator, the transfected cells were harvested by trypsinization, neutralized with Dulbecco’s modified Eagle’s medium containing 10% fetal calf serum (FCS) and penicillin–streptomycin, washed once with Hank’s balanced salt solution (HBSS) containing 5 mM of HEPES (pH 7.4), and resuspended in 6 mL of the HEPES-containing HBSS. The cell suspension was seeded into a 96-well plate at a volume of […] per well (typically, 48 wells per transfected cells) and incubated for 30 min in the CO2 incubator. Test compounds (10×, diluted in 0.01% BSA and 5 mM of HEPES-containing HBSS, […] volume) were added to duplicate wells and incubated for 1 h. After centrifugation, the conditioned medium ([…]) was transferred to an empty 96-well plate. AP reaction solution [10 mM of p-nitrophenylphosphate (p-NPP), 120 mM of Tris–HCl (pH 9.5), 40 mM of NaCl, and 10 mM of MgCl2] was dispensed into the cell culture plates and plates containing conditioned media ([…]). Absorbance was measured at 405 nm before and after a 1-h incubation period at 25 °C using a microplate reader (iMark™ Microplate Absorbance Reader; BioRad). Ligand-induced AP-TGFα release was calculated as previously described. The vehicle-treated AP-TGFα release signal was set as a baseline unless otherwise specified. AP-TGFα release signals were fitted with a four-parameter sigmoidal concentration-response curve, from which EC50 and Emax values were obtained, using GraphPad Prism 9 software (GraphPad Prism). Negative values of logarithmically transformed EC50 values (pEC50) were used to calculate the mean and standard error of independent experiments.
# (§2) All functional study data were analyzed using Prism 9 (GraphPad) and are presented as mean ± standard error of the mean (SEM) of three independent experiments. […]
# [2] = target: T2, human H4R D94A mutant (Homo sapiens, UniProt Q9H3N8, D94A); test: TGFα shedding assay, H4R D94A mutant; assay type: cell-based
# T2 construct: a mutant H4R (human, full-length, and untagged); expressed in transfected cells; host or cells: HEK293A
# T2 sequence (Q9H3N8 whole entry D94A): as the sequence (Q9H3N8 whole entry W348Y) above, with D94A, Y348W counted along it
# Experimental: as §1, §2
# [3] = target: T3, human H4R E182N mutant (Homo sapiens, UniProt Q9H3N8, E182N); test: TGFα shedding assay, H4R E182N mutant; assay type: cell-based
# T3 construct: a mutant H4R (human, full-length, and untagged); expressed in transfected cells; host or cells: HEK293A
# T3 sequence (Q9H3N8 whole entry E182N): as the sequence (Q9H3N8 whole entry W348Y) above, with E182N, Y348W counted along it
# Experimental: as §1, §2
# [4] = target: T4, human H4R N147A mutant (Homo sapiens, UniProt Q9H3N8, N147A); test: TGFα shedding assay, H4R N147A mutant; assay type: cell-based; settings: for EC50: EC50 (nM)
# T4 construct: a mutant H4R (human, full-length, and untagged); expressed in transfected cells; host or cells: HEK293A
# T4 sequence (Q9H3N8 whole entry N147A): as the sequence (Q9H3N8 whole entry W348Y) above, with N147A, Y348W counted along it
# Experimental: as §1
# (§3) All functional study data were analyzed using Prism 9 (GraphPad) and are presented as mean ± standard error of the mean (SEM) of three independent experiments. Statistical analyses were performed using Prism 9 (GraphPad) with one-way analysis of variance followed by Dunnett’s post-hoc test. Values with p < 0.05 are considered statistically significant.
# [5] = target: T5, human H4R W348A mutant (Homo sapiens, UniProt Q9H3N8, W348A); test: TGFα shedding assay, H4R W348A mutant; assay type: cell-based
# T5 construct: a mutant H4R (human, full-length, and untagged); expressed in transfected cells; host or cells: HEK293A
# T5 sequence (Q9H3N8 whole entry W348A): as the sequence (Q9H3N8 whole entry W348Y) above, with Y348A counted along it
# Experimental: as §1, §2
# [6] = target: T6, human H4R E182A mutant (Homo sapiens, UniProt Q9H3N8, E182A); test: TGFα shedding assay, H4R E182A mutant; assay type: cell-based
# T6 construct: a mutant H4R (human, full-length, and untagged); expressed in transfected cells; host or cells: HEK293A
# T6 sequence (Q9H3N8 whole entry E182A): as the sequence (Q9H3N8 whole entry W348Y) above, with E182A, Y348W counted along it
# Experimental: The mutants were prepared using the primers listed in Supplementary Table 2. […] The chimeric Gαq/i1 subunit comprises the Gαq backbone and Gαi1-derived six-amino acid C-terminus and couples with Gi-coupled H4R but induces a Gq-dependent TGFα shedding response. After culturing for 1 day and incubating at 37 °C in a 5% CO2 incubator, the transfected cells were harvested by trypsinization, neutralized with Dulbecco’s modified Eagle’s medium containing 10% fetal calf serum (FCS) and penicillin–streptomycin, washed once with Hank’s balanced salt solution (HBSS) containing 5 mM of HEPES (pH 7.4), and resuspended in 6 mL of the HEPES-containing HBSS. The cell suspension was seeded into a 96-well plate at a volume of […] per well (typically, 48 wells per transfected cells) and incubated for 30 min in the CO2 incubator. Test compounds (10×, diluted in 0.01% BSA and 5 mM of HEPES-containing HBSS, […] volume) were added to duplicate wells and incubated for 1 h. […] Absorbance was measured at 405 nm before and after a 1-h incubation period at 25 °C using a microplate reader (iMark™ Microplate Absorbance Reader; BioRad). Ligand-induced AP-TGFα release was calculated as previously described. […]
# as §2
# [7] = system: H1R; settings: in words; cited from earlier work
# [8] = target: H3R; settings: read-out: binding affinity for H3R; cited from earlier work
# [9] = target: T7, human H4R N147W mutant (Homo sapiens, UniProt Q9H3N8, N147W); test: TGFα shedding assay, H4R N147W mutant; assay type: cell-based; settings: for EC50: EC50 (nM)
# T7 construct: a mutant H4R (human, full-length, and untagged); expressed in transfected cells; host or cells: HEK293A
# T7 sequence (Q9H3N8 whole entry N147W): as the sequence (Q9H3N8 whole entry W348Y) above, with N147W, Y348W counted along it
# Experimental: as §1, §3
# [10] = target: T8, human H4R Q347G mutant (Homo sapiens, UniProt Q9H3N8, Q347G); test: TGFα shedding assay, H4R Q347G mutant; assay type: cell-based; settings: for EC50: EC50 (nM)
# T8 construct: a mutant H4R (human, full-length, and untagged); expressed in transfected cells; host or cells: HEK293A
# T8 sequence (Q9H3N8 whole entry Q347G): as the sequence (Q9H3N8 whole entry W348Y) above, with Q347G, Y348W counted along it
# Experimental: as §1, §3
# [11] = Imetit (M) -5 (log concentration), raw replicate values
structure (smiles),measurement,setting,value
"N=C(N)SCCc1cnc[nH]1 [Imetit, imetit]",EC50,[1],> 10000 nM
same,"Shedding assay response, W348Y",[1]; [11],5.993 and 7.639 and 4.713 and 7.402 and 9.589 and 3.141 and 9.854 and 11.9801 and 8.402
same,"signaling activity at mutant, in words",[1]; W348Y (H1R mimic) mutant vs wild type,loss of imetit activity
same,EC50,[2],> 10000 nM
same,"Shedding assay response, D94A",[2]; [11],-0.3449 and 0.03257 and -1.499 and 0.2405 and 1.217 and -0.1126 and 0.7155 and 3.933 and 12.3814
same,EC50,[3],> 10000 nM
same,"Shedding assay response, E182N",[3]; [11],-0.3367 and 1.68 and -1.08 and 4.253 and 4.399 and 3.645 and 9.053 and 3.546 and 4.747
same,EC50,[4]; N147A mutant,116 nM
same,EC50,"[4]; N147A, single experiments, source data Figure 4e-f",137 nM and 107 nM and 104 nM
same,"Shedding assay response, N147A",[4]; [11],17.6838 and 20.1153 and 13.587 and 17.1019 and 17.2369 and 16.9193 and 20.3122 and 17.3343 and 19.4779
same,fold of change,"[4]; N147A mutant, EC50 relative to WT",3.9 fold
same,Emax,[4]; read-out: Emax (%) mean ± SEM,17.2 ± 0.52%
same,EC50,[5],> 10000 nM
same,"Shedding assay response, W348A",[5]; [11],2.59 and 2.574 and 7.329 and -2.233 and 0.1771 and -0.5753 and 0.3498 and -1.339 and 0.3261
same,EC50,[6],> 10000 nM
same,"Shedding assay response, E182A",[6]; [11],0.5777 and -0.6527 and 0.544 and 1.716 and -0.08867 and -2.204 and 4.0352 and 2.359 and 1.291
same,binding to H1R,[7],does not bind
same,Ki,[8],0.3 nM
same,EC50,[9]; N147W mutant,603 nM
same,EC50,"[9]; N147W, single experiments, source data Figure 4e-f",569 nM and 612 nM and 627 nM
same,"Shedding assay response, N147W",[9]; [11],17.8239 and 17.9174 and 17.7465 and 15.1009 and 14.2938 and 15.4251 and 18.7186 and 19.6688 and 18.9313
same,fold of change,"[9]; N147W mutant, EC50 relative to WT",20.2 fold
same,Emax,[9]; read-out: Emax (%) mean ± SEM,18.4 ± 1.29%
same,EC50,[10]; Q347G mutant,6.2 nM
same,EC50,"[10]; Q347G, single experiments, source data Figure 4e-f",1.75 nM and 12.3 nM and 4.7 nM
same,"Shedding assay response, Q347G",[10]; [11],13.312 and 10.4592 and 11.4881 and 12.2257 and 13.3616 and 12.7037 and 13.9485 and 10.6151 and 26.3814
same,"signaling activity at mutant, in words",[10]; Q347G (H1R/H2R type) mutant vs wild type,slight increase
same,fold of change,"[10]; Q347G mutant, EC50 relative to WT",0.2 fold
